# Patent US20090270435A1 (priority 2006, published 2009)
# Where a name gives a salt, the structure may show the parent alone.
# Target: T1, ACC1 from rat liver (Rattus norvegicus, UniProt P11497)
# T1 construct: The livers (for ACC1 preparation) or skeletal muscle tissue (for ACC2 preparation) are removed; from tissue; host or cells: liver of male CD rats (fasted, then fed a high sucrose diet)
# Assay: Direct inhibition of ACC1 activity (14C-bicarbonate incorporation)
# Format: biochemical
# Protocol: [1] Preparation of ACC1 and ACC2.
# Male CD rats weighing 150-200 g are fasted for 2 days and then fed a high sucrose diet (AIN-76A rodent diet; Cat # D10001, Research Diets Inc., New Brunswick, N.J.), for 3 days at which time they are sacrificed by CO2 asphyxiation. The livers (for ACC1 preparation) or skeletal muscle tissue (for ACC2 preparation) are removed, rinsed in ice-cold phosphate-buffered saline (PBS), and homogenized in 5 volumes of homogenization buffer (50 mM potassium phosphate, pH 7.5, 10 mM EDTA, 10 mM 2-mercaptoethanol, 2 mM benzamidine, 0.2 mM phenylmethylsulfonylfluoride (PMSF), 5 mg/L each leupeptin, aprotinin, and antitrypsin) in a Waring® blender for 1 minute at 4° C. All subsequent operations are carried out at 4° C. The homogenate is made 3% with respect to polyethylene glycol (PEG) by the addition of 50% PEG solution and centrifuged at 20,000×g for 15 minutes. The resulting supernatant is adjusted to 5% PEG with the addition of 50% PEG solution and stirred for 5 minutes. The pellet (contains ACC activity) is collected by centrifugation at 20,000×g for 20 minutes, rinsed with Ice-cold doubly distilled water to remove excess PEG and re-suspended in one-fourth the original homogenate volume with homogenization buffer. Ammonium sulfate (200 g/liter) is slowly added with stirring. After 45 minutes the enzyme is collected by centrifugation for 30 minutes at 20,000×g, re-suspended in 10 ml of 50 mM HEPES, pH7.5, 0.1 mM DTT, 1.0 mM EDTA, and 10% glycerol and desalted on a Sephadex™ G-25 column (2.5 cm-x 50 cm) (Pharmacia, Piscataway N.J. now GE Healthcare) […] equilibrated with the same buffer. The desalted enzyme preparation is stored in aliquots at −70° C. Immediately prior to use, frozen ACC1 or ACC2 aliquots are thawed, diluted to 500 μg/ml in buffer containing 50 mM HEPES, pH7.5, 1.0 mM MgCl2, 10 mM tripotassium citrate, 2.0 mM dithiothreitol (DTT), and 0.75 mg/ml fatty acid-free bovine serum albumin (BSA) and pre-incubated at 37° C. for 30 minutes.
# [2] Measurement of ACC inhibition. The procedures for measuring ACC1 inhibition and ACC2 inhibition are identical except for the source of the isozyme. For measurement of ACC activity and assessment of ACC inhibition, test compounds are dissolved in dimethylsulfoxide (DMSO) and 1 μL aliquots are placed in 0.5 ml polypropylene tubes. Control tubes contain 1 μL of DMSO alone. Tubes are incubated at 37° C. in a constant temperature water bath. […] The reaction is then initiated by the addition of 10 μL of preincubated ACC fraction prepared as described above. After 7 minutes the reaction is terminated by the addition of 50 μL of 6N HCl and a 150 μL aliquot of the reaction mixture is transferred to glass scintillation vials and evaporated to dryness at 90° C. for at least 1 hour. The dried vials are then cooled, 0.5 ml of water and 5.5 ml of Ready Safe liquid scintillation fluid (Beckman Coulter Inc., Fullerton, Calif.) are added, and the radioactivity is determined using a liquid scintillation counter. Tubes that received HCl before ACC served as blanks.
Compound,IC50 (ACC1 from rat liver),other results
"COc1cccc2c1C(=O)CC1(CCN(C(=O)c3cc(Cl)c4[nH]ncc4c3)CC1)O2 [B6, 1′-[(7-chloro-1H-indazol-5-yl)carbonyl]-5-methoxyspiro[chromene-2,4′-piperidin]-4(3H)-one]",109 nM,–
"CCc1cc(C(=O)N2CCC3(CC2)CC(=O)c2cc(OC)ccc2O3)cc2cn[nH]c12 [Ex. C2, 1′-[(7-ethyl-1H-indazol-5-yl)carbonyl]-6-methoxyspiro[chromene-2,4′-piperidin]-4(3H)-one]",22.6 nM,–
"Cc1cc2c(c(C)c1Cl)C(=O)CC1(CCN(C(=O)c3cccc(-c4cc[nH]n4)c3)CC1)O2 [M22, 6-chloro-5,7-dimethyl-1′-[3-(1H-pyrazol-3-yl)benzoyl]spiro[chromene-2,4′-piperidin]-4(3H)-one]",–,IC50 (Table of Examples M1-M36): 452 nM
"Cc1cc2c(cc1Cl)C(=O)CC1(CCN(C(=O)c3cc(Br)cc4cn[nH]c34)CC1)O2 [Ex. J1, 1′-[(5-bromo-1H-indazol-7-yl)carbonyl]-6-chloro-7-methylspiro[chromene-2,4′-piperidin]-4(3H)-one]",345 nM,–
"Cc1cc2c(cc1Cl)C(=O)CC1(CCN(C(=O)c3ccc4c(cnn4C)c3)CC1)O2 [Ex. D3, 6-chloro-7-methyl-1′-[(1-methyl-1H-indazol-5-yl)carbonyl]spiro[chromene-2,4′-piperidin]-4(3H)-one]",250 nM,–
"O=C1CC2(CCN(C(=O)c3cccc4cn[nH]c34)CC2)Oc2cc(F)ccc21 [Ex. H19, 7-fluoro-1′-(1H-indazol-7-ylcarbonyl)spiro[chromene-2,4′-piperidin]-4(3H)-one]",2350 nM,–
"Cc1cc2c(cc1C)C(=O)CC1(CCN(C(=O)c3cccc4cn[nH]c34)CC1)O2 [Ex. H1, 1′-(1H-indazol-7-ylcarbonyl)-6,7-dimethylspiro[chromene-2,4′-piperidin]-4(3H)-one]",163 nM,–
COc1ccc2c(c1)OC1(CCN(C(=O)c3cccc4cn[nH]c34)CC1)CC2=O [Ex. H21],2530 nM,–
"6-chloro-1′-[(7-chloro-1H-indazol-5-yl)carbonyl]-7-fluorospiro[chromene-2,4′-piperidin]-4(3H)-one [Ex. B13]",287 nM,–
"Cc1cc2c(cc1C)C(=O)CC1(CCN(C(=O)c3ccc4cn[nH]c4c3)CC1)O2 [Ex. G1, 1-(1H-indazol-6-ylcarbonyl)-6,7-dimethylspiro[chromene-2,4′-piperidin]-4(3H)-one trifluoroacetic acid salt]",271 nM,–
"COc1ccc2c(c1)OC1(CCN(C(=O)c3cc(Cl)c4[nH]ncc4c3)CC1)CC2=O [Ex. B7, 1′-[(7-chloro-1H-indazol-5-yl)carbonyl]-7-methoxyspiro[chromene-2,4′-piperidin]-4(3H)-one]",166 nM,–
"Cc1cc2c(cc1C)C(=O)CC1(CCN(C(=O)c3cccc(-n4cccn4)c3)CC1)O2 [Ex. P11, 6,7-Dimethyl-1′-[3-(1H-pyrazol-1-yl)benzoyl]spiro[chromene-2,4′-piperidin]-4(3H)-one]",–,IC50 (Table of Examples P1-P15): 399 nM
"CCc1cc(C(=O)N2CCC3(CC2)CC(=O)c2cc(Cl)c(C)cc2O3)cc2cn[nH]c12 [Ex. C4, 6-chloro-1′-[(7-ethyl-1H-indazol-5-yl)carbonyl]-7-methylspiro[chromene-2,4′-piperidin]-4(3H)-one]",30.6 nM,–
"Cc1cc2c(cc1C)C(=O)CC1(CCN(C(=O)c3cccc4cc[nH]c34)CC1)O2 [Ex. L1, 1′-(1H-indol-7-ylcarbonyl)-6,7-dimethylspiro[chromene-2,4′-piperidin]-4(3H)-one trifluoroacetic acid salt]",190 nM,–
"O=C1CC2(CCN(C(=O)c3cc(Cl)c4[nH]ncc4c3)CC2)Oc2ccc(C(F)(F)F)cc21 [Ex. B12, 1′-[(7-chloro-1H-indazol-5-yl)carbonyl]-6-(trifluoromethyl)spiro[chromene-2,4′-piperidin]-4(3H)-one]",257 nM,–

# Now from value to compound, other results behind:
IC50 (ACC1 from rat liver),Compound,other results
164 nM,"Cc1cc2c(cc1C)C(=O)CC1(CCN(C(=O)c3ccc4nc[nH]c4c3)CC1)O2 [Ex. L22, 1′-(1H-benzimidazol-5-ylcarbonyl)-6,7-dimethylspiro[chromene-2,4′-piperidin]-4(3H)-one trifluoroacetic acid salt]",–
362 nM,"Cc1cc2c(cc1C)C(=O)CC1(CCN(C(=O)c3ccc4[nH]nnc4c3)CC1)O2 [Ex. L39, 1′-(1H-1,2,3-benzotriazol-5-ylcarbonyl)-6,7-dimethylspiro[chromene-2,4′-piperidin]-4(3H)-one trifluoroacetic acid salt]",–
130 nM,"Cc1cc2c(cc1C)C(=O)CC1(CCN(C(=O)c3ccc4c(c3)nc(N3CCCC3)n4C)CC1)O2 [Ex. L29, 6,7-dimethyl-1′-[(1-methyl-2-pyrrolidin-1-yl-1H-benzimidazol-5-yl)carbonyl]spiro[chromene-2,4′-piperidin]-4(3H)-one]",–
< 1000 nM,"Cc1[nH]c2ccc(C(=O)N3CCC4(CC3)CC(=O)c3cc(Cl)ccc3O4)cc2c1C [Ex. L12, 6-chloro-1′-[(2,3-dimethyl-1H-indol-5-yl)carbonyl]spiro[chromene-2,4′-piperidin]-4(3H)-one]",–
< 3000 nM,"Cc1cc2c(cc1C)C(=O)CC1(CCN(C(=O)c3ccc4c(c3)CCC(=O)N4)CC1)O2 [L44, 6,7-dimethyl-1′-[(2-oxo-1,2,3,4-tetrahydroquinolin-6-yl)carbonyl]spiro[chromene-2,4′-piperidin]-4(3H)-one]",–
613 nM,"Cc1cc2c(cc1C)C(=O)CC1(CCN(C(=O)c3ccc4[nH]c(C(F)(F)F)nc4c3)CC1)O2 [Ex. L25, 6,7-dimethyl-1′-{[2-(trifluoromethyl)-1H-benzimidazol-5-yl]carbonyl}spiro[chromene-2,4′-piperidin]-4(3H)-one trifluoroacetic acid salt]",–
121 nM,"Cc1cc2c(cc1C)C(=O)CC1(CCN(C(=O)c3ccc4ncccc4c3)CC1)O2 [Ex. L43, 6,7-dimethyl-1′-(quinolin-6-ylcarbonyl)spiro[chromene-2,4′-piperidin]-4(3H)-one trifluoroacetic acid salt]",–
< 3000 nM,"Cc1cc2c(cc1C)C(=O)CC1(CCN(C(=O)c3ccc4nccnc4c3)CC1)O2 [Ex. L45, 6,7-dimethyl-1′-(quinoxalin-6-ylcarbonyl)spiro[chromene-2,4′-piperidin]-4(3H)-one]",–
> 1000 nM,"COc1c(C(=O)N2CCC3(CC2)CC(=O)c2cc(C)c(C)cc2O3)cc(Cl)c2nc(C)[nH]c12 [Ex. L27, 1′-[(4-chloro-7-methoxy-2-methyl-1H-benzimidazol-6-yl)carbonyl]-6,7-dimethylspiro[chromene-2,4′-piperidin]-4(3H)-one]",–
3150 nM,"Cc1cc2c(cc1C)C(=O)CC1(CCN(C(=O)c3ccc4c(c3)nc(C)n4C)CC1)O2 [Ex. L28, 1′-[(1,2-dimethyl-1H-benzimidazol-5-yl)carbonyl]-6,7-dimethylspiro[chromene-2,4′-piperidin]-4(3H)-one]",–
151 nM,"Cc1cc2c(cc1C)C(=O)CC1(CCN(C(=O)c3ccc4[nH]nnc4c3)CC1)O2 [Ex. L37, 1′-(1H-1,2,3-benzotriazol-5-ylcarbonyl)-6,7-dimethylspiro[chromene-2,4′-piperidin]-4(3H)-one]",–
< 1000 nM,"Cn1ccc2ccc(C(=O)N3CCC4(CC3)CC(=O)c3cc(Cl)ccc3O4)cc21 [Ex. L5, 6-chloro-1′-[(1-methyl-1H-indol-6-yl)carbonyl]spiro[chromene-2,4′-piperidin]-4(3H)-one]",–
113 nM,"COc1cccc2c1C(=O)CC1(CCN(C(=O)c3ccc4[nH]c(C)c(C)c4c3)CC1)O2 [Ex. L11, 1′-[(2,3-dimethyl-1H-indol-5-yl)carbonyl]-5-methoxyspiro[chromene-2,4′-piperidin]-4(3H)-one]",–
368 nM,"Cc1cc2ccc(C(=O)N3CCC4(CC3)CC(=O)c3cc(C)c(C)cc3O4)cc2[nH]1 [Ex. L3, 6,7-dimethyl-1′-[(2-methyl-1H-indol-6-yl)carbonyl]spiro[chromene-2,4′-piperidin]-4(3H)-one trifluoroacetic acid salt]",–
